# Calls of active or inactive are those of the source. The rule behind the calls is not given here.
# Assays:
# HepG2 [1] = test: Cytotoxicity against human HepG2 cells assessed as cell growth inhibition after 24 hrs by alamar blue assay; format: functional, cell-based; settings: HepG2, 24 h
# HepG2 [2] = test: Cytotoxicity against human HepG2 cells assessed as cell viability at 3 uM after 72 hrs by alamar blue assay relative to control; format: functional; settings: HepG2, 72 h, read-out: Activity
# HepG2 [3] = test: Cytotoxicity against human HepG2 cells assessed as cell viability at 3 uM after 24 hrs by alamar blue assay relative to control; format: functional; settings: HepG2, 24 h, read-out: Activity
# HepG2 [4] = test: Cytotoxicity against human HepG2 cells assessed as cell viability at 1 uM after 24 hrs by alamar blue assay relative to control; format: functional; settings: HepG2, 24 h, read-out: Activity
# HepG2 [5] = test: Cytotoxicity against human HepG2 cells assessed as cell viability at 1 uM after 72 hrs by alamar blue assay relative to control; format: functional; settings: HepG2, 72 h, read-out: Activity
# [6] = Drug metabolism in human HepG2 cell lysate assessed as epoxide hydrolase-mediated 5-bromoindirubin 3'-(O-2,3-dihydroxypropyl)oxime formation after 30 mins by HPLC analysis; format: ADME; settings: 0.5 h
# [7] = Drug metabolism in human HepG2 cell lysate assessed as epoxide hydrolase-mediated 5-bromoindirubin 3'-(O-2,3-dihydroxypropyl)oxime formation after 30 mins by UPLC/MS analysis; format: ADME; settings: 0.5 h
# HepG2 [8] = test: Retention time of the compound in human HepG2 cell lysate by HPLC analysis; format: ADME, cell-based
# [9] = Drug metabolism in human HepG2 cell lysate assessed as epoxide hydrolase-mediated 5-bromoindirubin 3'-(O-2,3-dihydroxypropyl)oxime level by HPLC analysis; format: ADME; settings: TDE = time-dependent effect
# [10] = Drug metabolism in human HepG2 cell lysate assessed as epoxide hydrolase-mediated 5-bromoindirubin 3'-(O-2,3-dihydroxypropyl)oxime level after 20 mins by HPLC analysis; format: ADME
# [11] = Drug recovery in human HepG2 cell lysate at 5 mins by HPLC analysis; format: ADME, cell-based; settings: read-out: Drug recovery
# [12] = Drug recovery in human HepG2 cell lysate after 10 to 30 mins by HPLC analysis; format: ADME, cell-based
# [13] = Drug recovery in human HepG2 cell lysate by HPLC analysis; format: ADME, cell-based; settings: TDE = time-dependent effect
# [14] = Drug metabolism in human HepG2 cell lysate assessed as epoxide hydrolase-mediated oxirane hydrolysis at 20 uM measured up to 30 mins by HPLC analysis; format: ADME; settings: 0.5 h
# [15] = Drug recovery in human HepG2 cell lysate measured immediately after compound addition by HPLC analysis; format: ADME, cell-based; settings: read-out: Drug recovery
# epoxide hydrolase = test: Substrate activity at epoxide hydrolase in human HepG2 cell lysate after 5 mins by Lineweaver-Burk plot analysis; format: ADME
# [16] = Substrate activity at epoxide hydrolase in human HepG2 cell lysate assessed as 5-bromoindirubin 3'-(O-2,3-dihydroxypropyl)oxime formation at 2.5 to 6.25 uM after 5 mins by HPLC analysis; format: ADME
# Homo sapiens [17] = species on record: Homo sapiens; test: Effect on epoxide hydrolase activity in human HepG2 cell lysate measured up to 25 uM
# Homo sapiens [18] = species on record: Homo sapiens; test: Inhibition of epoxide hydrolase in human HepG2 cell lysate up to 25 uM by Kitz-Wilson method; settings: TDE = time-dependent effect
# [19] = Substrate activity at epoxide hydrolase in human HepG2 cell lysate assessed as 5-bromoindirubin 3'-(O-2,3-dihydroxypropyl)oxime formation at >10 uM after 5 mins by HPLC analysis; format: ADME
# Homo sapiens [20] = species on record: Homo sapiens; test: Inhibition of epoxide hydrolase in human HepG2 cell lysate up to 25 uM measured after 5 to 10 mins by Kitz-Wilson method
# HepG2 [21] = test: Cytotoxicity against human HepG2 cells assessed as cell viability at 3 uM up to 72 hrs by alamar blue assay; format: functional, cell-based
# [22] = Drug metabolism in human HepG2 cell lysate assessed as epoxide hydrolase-mediated 1H,1'H-[2,3']Biindolylidene-3,2'-dione 3-[O-(2,3-dihydroxy-propyl)-oxime] level after 5 mins by HPLC analysis; format: ADME
# [23] = Drug metabolism in human HepG2 cell lysate assessed as epoxide hydrolase-mediated 5-bromoindirubin 3'-(O-2,3-dihydroxypropyl)oxime level after 5 mins by HPLC analysis; format: ADME
# [24] = Drug recovery in human HepG2 cell lysate measured up to 30 mins by HPLC analysis; format: ADME, cell-based; settings: read-out: Drug recovery
# [25] = Drug metabolism in human HepG2 cell lysate assessed as epoxide hydrolase-mediated oxirane hydrolysis at 9 uM measured up to 30 mins by HPLC analysis; format: ADME; settings: 0.5 h
SMILES,IC50 (HepG2 [1]) [µM],also measured
O=C1Nc2ccc(F)cc2/C1=C1/Nc2ccccc2/C1=N\O,10,–
O=C1Nc2ccccc2/C1=C1/Nc2ccc(Br)cc2/C1=N\O,11,–
O=C1Nc2ccc(Br)cc2/C1=C1/Nc2ccccc2/C1=N\OCC1CO1 (stereo unspecified),0.62,viability at 3 µM (HepG2 [2]): 4.8%; viability at 3 µM (HepG2 [3]): 30%; viability at 1 µM (HepG2 [4]): 39%; viability at 1 µM (HepG2 [5]): 10%; Drug metabolism [6]: Metabolite_Detected; Drug metabolism [7]: Metabolite_Detected; Retention_time (HepG2 [8]): 5.9 min; Drug metabolism [9]: Tde; Drug metabolism [10]: <= 4 nmol; remaining at 5 min [11]: 88%; Drug recovery [12]: 80%; Drug recovery [13]: Tde; Drug metabolism [14]: 4 nmol; remaining at 0 min [15]: 95%; Km at 5 min (epoxide hydrolase): 3.34 µM; Activity [16]: Active; Activity (Homo sapiens [17]): inactive; inhibition (Homo sapiens [18]): Tde
O=C1Nc2ccc(Br)cc2/C1=C1/Nc2cc(Br)ccc2/C1=N\OCC1CO1 (stereo unspecified),> 100,–
O=C1Nc2ccc(Br)cc2/C1=C1/Nc2ccccc2/C1=N\OCC(O)CO (stereo unspecified),9.8,Retention_time (HepG2 [8]): 3.5 min; Activity [19]: Not Active; inhibition (Homo sapiens [20]): inactive
O=C1Nc2c(Br)cccc2/C1=C1/Nc2ccccc2C1=O,> 100,–
O=C1Nc2cc(Br)ccc2/C1=C1/Nc2ccc(Br)cc2C1=O,> 100,–
O=C1Nc2ccc(I)cc2/C1=C1/Nc2ccccc2/C1=N\OCC1CO1 (stereo unspecified),3,–
O=C1Nc2ccc(Br)cc2/C1=C1/Nc2ccccc2C1=O,> 100,–
O=C1Nc2cc(Br)ccc2/C1=C1/Nc2ccc(Br)cc2/C1=N\O,3.7,–
O=C1Nc2ccc(Cl)cc2/C1=C1/Nc2ccccc2/C1=N\O,13,–
COc1ccc2c(c1)/C(=C1/Nc3ccccc3C1=O)C(=O)N2,> 100,–
O=C1Nc2ccccc2/C1=C1/Nc2cc(Br)ccc2/C1=N\O,14,–
O=C1Nc2ccccc2/C1=C1/Nc2ccccc2/C1=N\OCCCC1CO1 (stereo unspecified),16,–
O=C1Nc2c(Br)cccc2/C1=C1/Nc2cc(Br)ccc2C1=O,> 100,–
O=C1Nc2ccc(Br)cc2/C1=C1/Nc2cc(Br)ccc2C1=O,> 100,–
COc1cccc2c1NC(=O)/C2=C1\Nc2ccccc2\C1=N/O,5.9,–
O=C1Nc2ccccc2/C1=C1/Nc2ccccc2/C1=N\OCCC1CO1 (stereo unspecified),7.8,–
O=C1Nc2ccc(F)cc2/C1=C1/Nc2ccccc2/C1=N\OCC1CO1 (stereo unspecified),1.7,–
O=C1Nc2c(Br)cc(Br)cc2/C1=C1/Nc2ccccc2/C1=N\OCC1CO1 (stereo unspecified),8.8,Activity (HepG2 [21]): inactive

SMILES,IC50 (HepG2 [1]) [µM],also measured
O=C1Nc2ccccc2/C1=C1/Nc2ccc(Br)cc2/C1=N\OCC1CO1 (stereo unspecified),3.3,–
O=C1Nc2cc(Br)ccc2/C1=C1/Nc2cc(Br)ccc2C1=O,> 100,–
O=C1Nc2cc(Br)c(Br)cc2/C1=C1/Nc2ccccc2/C1=N\OCC1CO1 (stereo unspecified),1.9,viability at 3 µM (HepG2 [2]): 6.5%; viability at 3 µM (HepG2 [3]): 48%; viability at 1 µM (HepG2 [4]): 78%; viability at 1 µM (HepG2 [5]): 96%
O=C1Nc2ccc(Cl)cc2/C1=C1/Nc2ccccc2C1=O,> 100,–
O=C1Nc2ccccc2/C1=C1/Nc2ccccc2C1=O [INDIRUBIN],> 100,–
O=C1Nc2ccc(Br)cc2/C1=C1/Nc2cc(Br)ccc2/C1=N\O,> 100,–
O=C1Nc2ccc(Br)cc2/C1=C1/Nc2ccc(Br)cc2/C1=N\OCC1CO1 (stereo unspecified),2.5,–
O=C1Nc2ccc(Cl)cc2/C1=C1/Nc2ccccc2/C1=N\OCC1CO1 (stereo unspecified),1.3,–
O=C1Nc2c(Br)cc(Br)cc2/C1=C1/Nc2ccccc2/C1=N\O,6.6,–
COc1ccc2c(c1)NC(=O)/C2=C1\Nc2ccccc2\C1=N/O,21,–
O=C1Nc2cc(Br)ccc2/C1=C1/Nc2ccccc2C1=O,> 100,–
O=C1Nc2ccc(I)cc2/C1=C1/Nc2ccccc2/C1=N\O,57,–
O=C1Nc2c(Br)cccc2/C1=C1/Nc2cc(Br)ccc2/C1=N\OCC1CO1 (stereo unspecified),> 100,–
COc1cccc2c1NC(=O)/C2=C1\Nc2ccccc2\C1=N/OCC1CO1 (stereo unspecified),10,–
O=C1Nc2cc(Br)ccc2/C1=C1/Nc2ccccc2/C1=N\OCC1CO1 (stereo unspecified),> 100,–
O=C1Nc2c(Br)cccc2/C1=C1/Nc2ccccc2/C1=N\O,4.8,–
O=C1Nc2ccc(Br)cc2/C1=C1/Nc2ccc(Br)cc2C1=O,> 100,–
O=C1Nc2ccc(Br)cc2/C1=C1/Nc2ccc(Br)cc2/C1=N\O,7,–
O=C1Nc2cc(Br)c(Br)cc2/C1=C1/Nc2ccccc2C1=O,> 100,–
O=C1Nc2ccccc2/C1=C1/Nc2ccc(Br)cc2C1=O,> 100,–

SMILES,IC50 (HepG2 [1]) [µM],also measured
O=C1Nc2cc(Br)c(Br)cc2/C1=C1/Nc2ccccc2/C1=N\O,4.4,–
O=C1Nc2c(Br)cccc2/C1=C1/Nc2cc(Br)ccc2/C1=N\O,17,–
O=C1Nc2ccc(I)cc2/C1=C1/Nc2ccccc2C1=O,> 100,–
O=C1Nc2ccccc2/C1=C1/Nc2ccccc2/C1=N\OCC1CO1 (stereo unspecified),–,viability at 3 µM (HepG2 [2]): 1.8%; viability at 3 µM (HepG2 [3]): 33%; viability at 1 µM (HepG2 [4]): 66%; viability at 1 µM (HepG2 [5]): 85%; Drug metabolism [22]: 7.34 nmol; Drug metabolism [23]: 2.24 nmol; remaining at 0.5 h [24]: 96 to 103%; Drug metabolism [25]: 1.8 nmol; Km at 5 min (epoxide hydrolase): 1.51 µM
O=C1Nc2ccc(F)cc2/C1=C1/Nc2ccccc2C1=O,> 100,–
COc1ccc2c(c1)NC(=O)/C2=C1\Nc2ccccc2C1=O,> 100,–
COc1ccc2c(c1)/C(=C1/Nc3ccccc3/C1=N\O)C(=O)N2,6.2,–
O=C1Nc2c(Br)cccc2/C1=C1/Nc2ccc(Br)cc2/C1=N\OCC1CO1 (stereo unspecified),10,Activity (HepG2 [21]): inactive
O=C1Nc2c(Br)cccc2/C1=C1/Nc2ccc(Br)cc2C1=O,> 100,–
O=C1Nc2cc(Br)ccc2/C1=C1/Nc2cc(Br)ccc2/C1=N\O,16,–
COc1cccc2c1NC(=O)/C2=C1\Nc2ccccc2C1=O,> 100,–
O=C1Nc2cc(Br)ccc2/C1=C1/Nc2ccc(Br)cc2/C1=N\OCC1CO1 (stereo unspecified),> 100,–
O=C1Nc2ccc(Br)cc2/C1=C1/Nc2ccccc2/C1=N\O [INDIRUBIN 2],6.9,–
O=C1Nc2c(Br)cccc2/C1=C1/Nc2ccc(Br)cc2/C1=N\O,4.9,–
O=C1Nc2ccccc2/C1=C1/Nc2cc(Br)ccc2C1=O,> 100,–
COc1ccc2c(c1)/C(=C1/Nc3ccccc3/C1=N\OCC1CO1)C(=O)N2 (stereo unspecified),1.6,–
O=C1Nc2c(Br)cccc2/C1=C1/Nc2ccccc2/C1=N\OCC1CO1 (stereo unspecified),37,Activity (HepG2 [21]): inactive
O=C1Nc2ccccc2/C1=C1/Nc2cc(Br)ccc2/C1=N\OCC1CO1 (stereo unspecified),4.5,–
O=C1Nc2cc(Br)ccc2/C1=C1/Nc2cc(Br)ccc2/C1=N\OCC1CO1 (stereo unspecified),> 100,–
COc1ccc2c(c1)NC(=O)/C2=C1\Nc2ccccc2\C1=N/OCC1CO1 (stereo unspecified),61,–

# Reference: ChEMBL document CHEMBL4043121, “5-Bromoindirubin 3'-(O-oxiran-2-ylmethyl)oxime: A long-acting anticancer agent and a suicide inhibitor for epoxide hydrolase” (Bioorg Med Chem, 2017)
